Assay results as given in ChEMBL document CHEMBL3879881, “Substituted pyrazolyl compounds for the treatment of inflammation” (2005).

Target: T1, Inhibitor of nuclear factor kappa-B kinase subunit beta (Homo sapiens, UniProt O14920)
T1 sequence (O14920 whole entry): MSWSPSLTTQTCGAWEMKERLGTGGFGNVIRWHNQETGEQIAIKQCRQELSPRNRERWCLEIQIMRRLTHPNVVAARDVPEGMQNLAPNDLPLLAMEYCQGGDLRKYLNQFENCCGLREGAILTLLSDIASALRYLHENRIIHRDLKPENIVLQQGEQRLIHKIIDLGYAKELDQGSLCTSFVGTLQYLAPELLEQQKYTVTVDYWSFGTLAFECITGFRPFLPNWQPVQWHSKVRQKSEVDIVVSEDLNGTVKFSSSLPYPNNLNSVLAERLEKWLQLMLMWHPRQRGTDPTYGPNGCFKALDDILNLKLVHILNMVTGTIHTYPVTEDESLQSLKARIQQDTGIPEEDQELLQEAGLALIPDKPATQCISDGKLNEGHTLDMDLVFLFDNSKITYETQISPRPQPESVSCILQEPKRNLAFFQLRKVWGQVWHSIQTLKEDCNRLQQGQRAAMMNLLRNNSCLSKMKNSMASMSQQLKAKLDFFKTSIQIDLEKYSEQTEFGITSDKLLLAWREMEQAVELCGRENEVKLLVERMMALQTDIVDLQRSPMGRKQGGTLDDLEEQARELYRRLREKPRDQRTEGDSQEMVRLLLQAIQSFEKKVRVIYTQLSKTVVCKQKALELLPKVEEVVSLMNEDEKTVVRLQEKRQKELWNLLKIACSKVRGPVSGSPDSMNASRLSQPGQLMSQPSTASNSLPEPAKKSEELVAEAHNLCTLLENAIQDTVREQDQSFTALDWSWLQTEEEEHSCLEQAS
Assay: Inhibition of human recombinant C-terminal FLAG-epitope-tagged IKK2 expressed in baculovirus using biotinylated IkappaBalpha peptide as substrate assessed as decrease in [gamma-33P]-ATP incorporation in substrate after 30 mins by scintillation counting method

| Compound | IC50 [µM] |
| --- | --- |
| CN(C)CCOc1ccc(Cl)c(C(=O)Nc2ccc3c(c2)-c2c(c(C(N)=O)nn2-c2ccc4c(c2)OCO4)CC3)c1 | 1 to 10 |
| CS(=O)(=O)c1ccc(-n2nc(C(N)=O)c3c2-c2cc(NC(=O)C4CCC4)ccc2CC3)cc1 | 1 to 10 |
| COc1cccc(C(=O)Nc2ccc3c(c2)-c2c(c(C(N)=O)nn2-c2ccc(S(C)(=O)=O)cc2)CC3)c1 | 1 to 10 |
| C[S+]([O-])c1ccc(Cl)c(C(=O)Nc2ccc3c(c2)-c2c(c(C(N)=O)nn2-c2ccc4c(c2)OCO4)CC3)c1 (centres undefined) | ≤ 1 |
| CS(=O)(=O)c1ccc(-n2nc(C(N)=O)c3c2-c2cc(NC(=O)[C@@H](N)Cc4c[nH]cn4)ccc2CC3)cc1 | 1 to 10 |
| CS(=O)(=O)c1ccc(-n2nc(C(N)=O)c3c2-c2cc(NC(=O)c4cnccc4Cl)ccc2CC3)cc1 | 1 to 10 |
| Cc1nnsc1C(=O)Nc1ccc2c(c1)-c1c(c(C(N)=O)nn1-c1ccc3c(c1)OCO3)CC2 | 1 to 10 |
| NC(=O)c1nn(-c2ccc(S(N)(=O)=O)cc2)c2c1CCc1ccc(NS(=O)(=O)c3ccccc3Cl)cc1-2 | 10 to 100 |
| Cc1cccc(C(=O)Nc2ccc3c(c2)-c2c(c(C(N)=O)nn2-c2ccc(S(C)(=O)=O)cc2)CC3)c1 | 1 to 10 |
| NC(=O)c1nn(-c2ccc(S(N)(=O)=O)cc2)c2c1CCc1ccc(NC(=O)c3ccccc3Br)cc1-2 | ≤ 1 |
| CSc1ccccc1C(=O)Nc1ccc2c(c1)-c1c(c(C(N)=O)nn1-c1ccc(S(C)(=O)=O)cc1)CC2 | 1 to 10 |
| Cc1cccc(S(=O)(=O)Nc2ccc3c(c2)-c2c(c(C(N)=O)nn2-c2ccc(S(N)(=O)=O)cc2)CC3)c1 | 10 to 100 |
| CS(=O)(=O)c1ccc(-n2nc(C(N)=O)c3c2-c2cc(NC(=O)c4cc(Cl)ccc4N)ccc2CC3)cc1 | 1 to 10 |
| NC(=O)c1nn(-c2ccc(S(N)(=O)=O)cc2)c2c1CCc1ccc(NC(=O)c3ccccc3F)cc1-2 | ≤ 1 |
| CS(=O)(=O)Nc1ccc2c(c1)-c1c(c(C(N)=O)nn1-c1ccc(F)cc1)CC2 | 1 to 10 |
| NC(=O)c1nn(-c2ccc3c(c2)OCO3)c2c1CCc1ccc(NC(=O)c3cc(Cl)ncc3Cl)cc1-2 | ≤ 1 |
| CN1CCN(c2ccc(Cl)c(C(=O)Nc3ccc4c(c3)-c3c(c(C(N)=O)nn3-c3ccc(S(C)(=O)=O)cc3)CC4)c2)CC1 | < 1 |
| N#Cc1cccc(C(=O)Nc2ccc3c(c2)-c2c(c(C(N)=O)nn2-c2ccc(S(N)(=O)=O)cc2)CC3)c1 | ≤ 1 |
| CN(C)CC(=O)Nc1ccc(C(=O)Nc2ccc3c(c2)-c2c(c(C(N)=O)nn2-c2ccc4c(c2)OCO4)CC3)c(Cl)c1 | 1 to 10 |
| NC(=O)c1nn(-c2ccc(S(N)(=O)=O)cc2)c2c1CCc1ccc(NC(=O)c3c(Cl)cccc3Cl)cc1-2 | ≤ 1 |
| NC(=O)c1nn(-c2ccc(F)cc2)c2c1CCc1ccc(NC(=O)c3cc(Cl)ncc3Cl)cc1-2 | ≤ 1 |
| Cc1ncccc1C(=O)Nc1ccc2c(c1)-c1c(c(C(N)=O)nn1-c1ccc3c(c1)OCO3)CC2 | 1 to 10 |
| CS(=O)(=O)c1ccc(-n2nc(C(N)=O)c3c2-c2cc(NC(=O)c4cc(S(C)(=O)=O)ccc4Cl)ccc2CC3)cc1 | ≤ 1 |

| Compound | IC50 [µM] |
| --- | --- |
| NC(=O)c1nn(-c2ccc3c(c2)OCO3)c2c1CCc1ccc(NC(=O)c3ccoc3)cc1-2 | 1 to 10 |
| CS(=O)(=O)c1ccc(-n2nc(C(N)=O)c3c2-c2cc(NC(=O)Cc4ccccc4)ccc2CC3)cc1 | 1 to 10 |
| C[S+]([O-])c1ccc(Cl)c(C(=O)Nc2ccc3c(c2)-c2c(c(C(N)=O)nn2-c2ccc(S(C)(=O)=O)cc2)CC3)c1 (centres undefined) | ≤ 1 |
| NC(=O)c1nn(-c2ccc(S(N)(=O)=O)cc2)c2c1CCc1ccc(NC(=O)c3cccnc3)cc1-2 | ≤ 1 |
| NC(=O)c1nn(-c2ccc(S(N)(=O)=O)cc2)c2c1CCc1ccc(NC(=O)c3cccnc3Cl)cc1-2 | ≤ 1 |
| Cc1c(O)cccc1C(=O)Nc1ccc2c(c1)-c1c(c(C(N)=O)nn1-c1ccc(S(C)(=O)=O)cc1)CC2 | ≤ 1 |
| Cc1ccn2c(C)c(C(=O)Nc3ccc4c(c3)-c3c(c(C(N)=O)nn3-c3ccc(S(C)(=O)=O)cc3)CC4)nc2c1 | 1 to 10 |
| CS(=O)(=O)c1ccc(-n2nc(C(N)=O)c3c2-c2cc(NC(=O)c4cc(N=[N+]=[N-])ccc4[N+](=O)O)ccc2CC3)cc1 | ≤ 1 |
| Cc1c(C(=O)Nc2ccc3c(c2)-c2c(c(C(N)=O)nn2-c2ccc(S(C)(=O)=O)cc2)CC3)cccc1[N+](=O)[O-] | 1 to 10 |
| Cc1cccc(C(=O)Nc2ccc3c(c2)-c2c(c(C(N)=O)nn2-c2ccc(S(C)(=O)=O)cc2)CC3)c1C | 1 to 10 |
| Cc1cccc(C(=O)Nc2ccc3c(c2)-c2c(c(C(N)=O)nn2-c2ccc(S(C)(=O)=O)cc2)CC3)c1[N+](=O)[O-] | 1 to 10 |
| CC(=O)Oc1cccc(C(=O)Nc2ccc3c(c2)-c2c(c(C(N)=O)nn2-c2ccc(S(C)(=O)=O)cc2)CC3)c1C | 1 to 10 |
| N#Cc1ccc(C(=O)Nc2ccc3c(c2)-c2c(c(C(N)=O)nn2-c2ccc4c(c2)OCO4)CC3)cc1 | 1 to 10 |
| NC(=O)c1nn(-c2ccc(S(N)(=O)=O)cc2)c2c1CCc1ccc(NS(=O)(=O)c3cccc(Cl)c3)cc1-2 | 1 to 10 |
| NC(=O)c1nn(-c2ccc(S(N)(=O)=O)cc2)c2c1CCc1ccc(NS(=O)(=O)c3cccc(Br)c3)cc1-2 | 1 to 10 |
| C[S+]([O-])c1ccc(Cl)c(C(=O)Nc2ccc3c(c2)-c2c(c(C(N)=O)nn2-c2ccc(F)cc2)CC3)c1 (centres undefined) | ≤ 1 |
| Cc1ccccc1C(=O)Nc1ccc2c(c1)-c1c(c(C(N)=O)nn1-c1ccc3c(c1)OCO3)CC2 | 1 to 10 |
| CSc1ncc(Cl)c(C(=O)Nc2ccc3c(c2)-c2c(c(C(N)=O)nn2-c2ccc4c(c2)OCO4)CC3)n1 | ≤ 1 |
| CS(=O)(=O)c1ccc(-n2nc(C(N)=O)c3c2-c2cc(N)ccc2CC3)cc1 | 1 to 10 |
| COc1ccccc1C(=O)Nc1ccc2c(c1)-c1c(c(C(N)=O)nn1-c1ccc(S(N)(=O)=O)cc1)CC2 | 10 to 100 |
| NC(=O)c1nn(-c2ccc(S(N)(=O)=O)cc2)c2c1CCc1ccc(NC(=O)c3ccccc3C(F)(F)F)cc1-2 | ≤ 1 |
| NC(=O)c1nn(-c2ccc3c(c2)OCO3)c2c1CCc1ccc(NC(=O)c3cccc(O)n3)cc1-2 | 1 to 10 |
| NC(=O)c1nn(-c2ccc(F)cc2)c2c1CCc1ccc(NC(=O)c3ccncc3)cc1-2 | 1 to 10 |

| Compound | IC50 [µM] |
| --- | --- |
| NC(=O)c1nn(-c2ccc3c(c2)OCO3)c2c1CCc1ccc(NC(=O)c3ccccc3OC(F)(F)F)cc1-2 | 1 to 10 |
| NC(=O)c1nn(-c2ccc(F)cc2)c2c1CCc1ccc(NC(=O)c3cc4c(cc3Cl)OCO4)cc1-2 | ≤ 1 |
| COc1cccc(CC(=O)Nc2ccc3c(c2)-c2c(c(C(N)=O)nn2-c2ccc(S(N)(=O)=O)cc2)CC3)c1 | 1 to 10 |
| COc1ccc([N+](=O)[O-])c(C(=O)Nc2ccc3c(c2)-c2c(c(C(N)=O)nn2-c2ccc4c(c2)OCO4)CC3)c1 | 1 to 10 |
| CN1CCN(c2ccc(Cl)c(C(=O)Nc3ccc4c(c3)-c3c(c(C(N)=O)nn3-c3ccc5c(c3)OCO5)CC4)c2)CC1 | ≤ 1 |
| NC(=O)c1nn(-c2ccc(S(N)(=O)=O)cc2)c2c1CCc1ccc(NC(=O)c3cccc(Br)c3)cc1-2 | ≤ 1 |
| NC(=O)c1nn(-c2ccc3c(c2)OCO3)c2c1CCc1ccc(NC(=O)c3nc(Cl)ccc3Cl)cc1-2 | 1 to 10 |
| NC(=O)c1nn(-c2ccc3c(c2)OCO3)c2c1CCc1ccc(NC(=O)c3cc[n+]([O-])cc3)cc1-2 | 1 to 10 |
| COc1ccc(CNc2ncccc2C(=O)Nc2ccc3c(c2)-c2c(c(C(N)=O)nn2-c2ccc4c(c2)OCO4)CC3)cc1 | 10 to 100 |
| NC(=O)c1nn(-c2ccc(S(N)(=O)=O)cc2)c2c1CCc1ccc(NC(=O)c3ccccc3OC(F)(F)F)cc1-2 | ≤ 1 |
| NC(=O)c1nn(-c2ccc(S(N)(=O)=O)cc2)c2c1CCc1ccc(NC(=O)c3cccc(Cl)c3)cc1-2 | ≤ 1 |
| CC(=O)c1ccc(C(=O)Nc2ccc3c(c2)-c2c(c(C(N)=O)nn2-c2ccc4c(c2)OCO4)CC3)cc1 | 1 to 10 |
| Cc1ccccc1C(=O)Nc1ccc2c(c1)-c1c(c(C(N)=O)nn1-c1ccc(S(N)(=O)=O)cc1)CC2 | ≤ 1 |
| NC(=O)c1nn(-c2ccc(S(N)(=O)=O)cc2)c2c1CCc1ccc(NC(=O)c3cccc(Cl)c3Cl)cc1-2 | ≤ 1 |
| NC(=O)c1nn(-c2ccc3c(c2)OCO3)c2c1CCc1ccc(NC(=O)c3ccc(Cl)c(N)c3)cc1-2 | 1 to 10 |
| NC(=O)c1nn(-c2ccc3c(c2)OCO3)c2c1CCc1ccc(NC(=O)c3cc(Cl)cnc3Cl)cc1-2 | ≤ 1 |
| CS(=O)(=O)c1ccc(-n2nc(C(N)=O)c3c2-c2cc(NC(=O)c4ccccc4N)ccc2CC3)cc1 | 1 to 10 |
| COc1cccc(C(=O)Nc2ccc3c(c2)-c2c(c(C(N)=O)nn2-c2ccc(S(N)(=O)=O)cc2)CC3)c1 | ≤ 1 |
| NC(=O)c1nn(-c2ccc(S(N)(=O)=O)cc2)c2c1CCc1ccc(NC(=O)c3ccccc3Cl)cc1-2 | ≤ 1 |
| CS(=O)(=O)c1ccc(-n2nc(C(N)=O)c3c2-c2cc(NC(=O)c4cn[nH]c4)ccc2CC3)cc1 | 1 to 10 |
| NC(=O)c1nn(-c2ccc3c(c2)OCO3)c2c1CCc1ccc(NC(=O)c3cccnc3N)cc1-2 | 1 to 10 |
| NC(=O)c1nn(-c2ccc3c(c2)OCO3)c2c1CCc1ccc(NC(=O)c3cc(N4CCNCC4)ncc3Cl)cc1-2 | ≤ 1 |
| CN1CCN(c2cc(C(=O)Nc3ccc4c(c3)-c3c(c(C(N)=O)nn3-c3ccc5c(c3)OCO5)CC4)c(Cl)cn2)CC1 | ≤ 1 |
